Source: patent publication US20200164047A1, “THERAPY AND DIAGNOSIS OF DISEASE CHARACTERIZED BY ALTERATIONS IN THE DNA DAMAGE RESPONSE” (UNIVERSITÀ DEGLI STUDI DI MILANO, priority 2017, published 2020)

How the values were obtained:
HCT116 xenograft tumors = assay: In vivo growth of HCT116 xenograft tumors; set-up: species or system mice
Excerpt: FIG. 13. […] Error bars indicate SEM.
(§1) FIG. 31. […] (B) Immunoblotting analysis of total cell lysates used for immunoprecipitation in (A).

[1] = tested on: cancer cell lines representative of different cancer types; assay: Proliferation of cancer cell lines by CellTiter-Glo assay; assay type: cell-based; conditions: nutrient-rich conditions
Protocol: (§2) FIG. 20. […] (F, G) Quantification of oxygen consumption rate normalized by cell numbers of cells cultured in DMEM medium containing the indicated concentrations of glucose for 12 hours (F) or in DMEM medium containing with 2.5 mM glucose for the indicated time points (G).
CellTiter Glo Luminescent Cell Viability Assay (Promega) was used according to manufacturer's protocol. Briefly, cells were plated in 96 well plates, treated 24h later with different doses of drugs in total volume of 100 μl. 24h later, 100 μl of CellTiter Glo reagent was added to the cells and incubated for 15 min at 37° C. and luminescence was measured using a Promega plate reader.

cancer cells = assay: Lactate production and glucose consumption of cancer cells; assay type: cell-based; conditions: metformin treatment
Protocol: as §2
Lactate production was measured using Lactate Assay Kit (Sigma Aldrich) according to manufacturer's instructions.

HCT116 and HeLa cells = conditions: low glucose conditions plus metformin, 24 h
Protocol: FIG. 14. […] (A) Images of HCT116 and HeLa cells cultured for 24 hours in either nutrient-rich DMEM (containing 10% FBS and 10 mM glucose), DMEM containing 2.5 mM glucose (glucose deprivation), DMEM with 0.1% serum (serum deprivation) or DMEM with no glutamine, no methionine and no cysteine (amino acids deprivation). Media were replenished every 6 hours. (B) Quantification of cell death of HCT116 and HeLa cells cultured as in A as measured by propidium iodide uptake using flow cytometry. […] Media were replenished every 6 hours.
as §1
Cells were harvested by trypsinization, washed in PBS (pH 7.2), and then stained with propidium iodide (10 mg/ml) added immediately prior to analysis. Cell fluorescence was then measured on a flow cytometer (FACSCalibur; Becton Dickinson, CA) and analyzed using CellQuest software.

PP2A-GSK3β-MCL-1 axis = assay: Immunoblotting of phosphorylated GSK3β, MCL-1 and CIP2A; assay type: cell-based; conditions: HCT116 and HeLa
Protocol: FIG. 16. […] (A, B) Immunoblotting analysis of lysates derived from HCT116 and HeLa cells cultured for 24 hours in either nutrient-rich DMEM (containing 10% FBS and 10 mM glucose), DMEM containing 2.5 mM glucose (glucose deprivation), DMEM with 0.1% serum (serum deprivation) or DMEM with no glutamine, no methionine and no cysteine (amino acids deprivation). Media were replenished every 6 hours.
as §1
Whole cell lysates were prepared by directly lysing cells growing in culturing dishes or collected cell pellets in lysis buffer (40 mM Hepes pH 7.5, 120 mM NaCl, 1 mM EDTA, 10 mM pyrophosphate, 10 mM glycerophosphate, 50 mM NaF, 0.5 mM orthovanadate, and EDTA-free protease inhibitors (Roche) containing 0.3% CHAPS). Lysates were prepared from frozen tumors using GentleMACS dissociator. Lysates were cleared by centrifugation at 13000 g for 15 min. at 4° C., quantified using BioRad DC protein assay reagent followed by mixing 1:1 with 4% SDS, 100 mM Tris.Cl pH 6.8, 20% glycerol, 0.1% bromophenol blue and 5% β-mercaptoethanol added immediately before use and heating at 94° C. for 7 min. Equal amounts of proteins were then electrophoresed on 8-15% SDS-PAGE gels. Gels were run at 100 V (stacking gel)/150 V (separation gel) on Protean III apparatus (BioRad). Gels were transferred onto nitrocellulose and probed with the appropriate primary antibody for a variable incubation time depending on the experimental design, followed by the corresponding secondary antibodies diluted 1:5000-10000. The proteins were visualized by enhanced chemiluminescence (ECL) using ChemiDoc apparatus (BioRad) according to the manufacturer's instructions.

HeLa cells = assay: HeLa viable cell count with DNA damaging agents (trypan blue); assay type: cell-based; conditions: hydroxyurea 10 mM + gemcitabine 10 nM; high (10 mM) or low (2.5 mM) glucose
Protocol: After 24 hrs treatment, cells are allowed to grow for further 24 hrs (replacing the medium with normal medium), before being harvested and counted with trypan blue to measure viable cells.
(§3) HeLa cells were seeded in 6-well plates (200,00 cells/well), and left untreated, or treated with DNA damaging agents (hydroxyurea 10 mM+gemcitabine 10 nM), in high (10 mM) or low (2.5 mM) glucose, and treated with perphenazine (PPZ) as indicated. After 24 hrs treatment, cells are allowed to grow for further 24 hrs (replacing the medium with normal medium), before being harvested and counted with trypan blue to measure viable cells.
as §3, with “FTY-720 (FTY)” for “perphenazine (PPZ)”
as §3, with “Ceramide” for “perphenazine (PPZ)”
Cells were harvested by trypsinization, washed in PBS (pH 7.2), and then stained with trypan blue solution 04% v/v (Sigma Aldrich) added immediately prior to analysis. Cells ware then counted on a TC30 automated cell counter (Biorad).

[2] = tested on: Bx-PC3 pancreatic cancer cells; assay type: cell-based; conditions: metformin in combination with low glucose, 24, 48 and 72 hrs
[3] = Blood glucose levels in tumor-bearing mice; conditions: metformin 200 mg/kg oral gavage
Excerpt: (B-D) The levels of blood glucose measured at the end of each feeding/fasting cycle in different experimental groups. […] Error bars indicate SEM. (n=5 per group).
To this end, mice bearing HCT116 xenografts were distributed into five groups as schematized in FIG. 13; the first two groups were kept on ad libitum feeding while the three other groups were subjected to 24-hour cycles of feeding-fasting. Fasting in those groups was achieved by complete withdrawal of food while allowing free access to water. […] The first of those three groups (Fed/Fast group) received vehicle every 48h to assess the effect of fasting-feeding cycles alone on tumor growth. […] Tumor growth was monitored in all groups.

In the case of `CN(C)C(=N)NC(=N)N.Cl` [metformin], the tumor growth (HCT116 xenograft tumors; metformin 200 mg/kg every 48 h during fasting cycles (Met/Fast)) is reported as “dramatically impeded”, the tumor growth (HCT116 xenograft tumors; metformin alone, ad libitum feeding, 200 mg/kg oral gavage) is reported as “did not exert any significant tumor restraining effect” and the anti-proliferative effect [1] is reported as “only weak anti-proliferative effects”. For the same compound, the “glucose consumption and lactate production” value (cancer cells) was “dose and time-dependent increase in glucose consumption and lactate production”, the cell death (HCT116 and HeLa cells) was “marked cell death” and the GSK3β phosphorylation (PP2A-GSK3β-MCL-1 axis; low glucose-metformin combination) was “almost completely abolished GSK3β phosphorylation”. The MCL-1 protein levels (PP2A-GSK3β-MCL-1 axis; metformin in low glucose) was “marked reduction in MCL-1 protein levels”, the “level of CIP2A” value (PP2A-GSK3β-MCL-1 axis; metformin treatment) was “reduction in the level of CIP2A” and the “cooperation with DNA damaging agents (viable cells)” value (HeLa cells) was “potentiates the effect of DNA damaging agents in low glucose”. For the same compound, the “sensitization by RAD51 knockdown” value [2] was “dramatically sensitizes” and the blood glucose levels [3] was “reduced blood glucose levels but to a much less extent than that induced by fasting”.
